Source: ChEMBL document CHEMBL1140847, “Spectroscopic and calorimetric studies on the DNA recognition of pyrrolo[2,1-c][1,4]benzodiazepine hybrids” (Bioorg Med Chem, 2009)
The source made the active and inactive calls. The rule behind the calls is not given here.

Tests used:
[1] = Binding affinity to oligonucleotide duplex DNA D5 at drug-duplex molar ratio of 2:1 assessed as change in melting temperature by UV melting experiment
[2] = Binding affinity to oligonucleotide duplex DNA D2c at drug-duplex molar ratio of 2:1 assessed as change in melting temperature by UV melting experiment
[3] = Binding affinity to oligonucleotide duplex DNA D2e at drug-duplex molar ratio of 2:1 assessed as change in melting temperature by UV melting experiment
[4] = Binding affinity to oligonucleotide duplex DNA D6 at drug-duplex molar ratio of 2:1 assessed as change in melting temperature by UV melting experiment
[5] = Binding affinity to oligonucleotide duplex DNA D2a at drug-duplex molar ratio of 2:1 assessed as change in melting temperature by UV melting experiment
[6] = Binding affinity to oligonucleotide duplex DNA D7 at drug-duplex molar ratio of 2:1 assessed as change in melting temperature by UV melting experiment
[7] = Binding affinity to oligonucleotide hairpin duplex DNA D2d at 26 uM by UV titration experiment
[8] = Binding affinity to oligonucleotide hairpin duplex DNA D2d by fluorescence titration experiment
[9] = Binding affinity to oligonucleotide hairpin duplex DNA D2d by isothermal titration calorimetry
[10] = Binding affinity to oligonucleotide duplex DNA D2a at 10 uM by circular dichroism
[11] = Binding affinity to oligonucleotide duplex DNA D1 at drug-duplex molar ratio of 2:1 assessed as change in melting temperature by UV melting experiment
[12] = Binding affinity to oligonucleotide duplex DNA D2b at drug-duplex molar ratio of 2:1 assessed as change in melting temperature by UV melting experiment
[13] = Binding affinity to oligonucleotide duplex DNA D4 at drug-duplex molar ratio of 2:1 assessed as change in melting temperature by UV melting experiment
[14] = Binding affinity to oligonucleotide duplex DNA D8 at drug-duplex molar ratio of 2:1 assessed as change in melting temperature by UV melting experiment
[15] = Binding affinity to oligonucleotide duplex DNA D2a at 6.6 uM by circular dichroism
[16] = Binding affinity to oligonucleotide duplex DNA D3 at drug-duplex molar ratio of 2:1 assessed as change in melting temperature by UV melting experiment

Row | Activity [15] | ΔTm [16] [°C] | Compound | ΔTm [1] [°C] | ΔTm [2] [°C] | ΔTm [3] [°C] | ΔTm [4] [°C] | ΔTm [5] [°C] | ΔTm [6] [°C] | Activity [7] | Ka [8] [×10⁶ /M] | Ka [9] [×10⁵ /M] | Activity [10] | ΔTm [11] [°C] | ΔTm [12] [°C] | ΔTm [13] [°C] | ΔTm [14] [°C]
1 | – | – | COc1cc2c(cc1OCCCOc1ccc(-c3nc4ccc(N5CCN(C)CC5)cc4[nH]3)cc1)N=C[C@@H]1CCCN1C2=O | 32.5 | 9 | 37 | 34.5 | 33 | 27 | Active | 5.6 | 8.9 | Active | 10 | 39 | 34.3 | 0
2 | Active | 39.5 | COc1cc2c(cc1OCCCN1CCN(CCN3C(=O)c4cccc5cccc(c45)C3=O)CC1)N=C[C@@H]1CCCN1C2=O | 30.3 | 6.5 | 35 | 37.3 | 34 | 31.5 | Active | 3.8 | 7.8 | – | 9 | 34.3 | 36.8 | 35
